In patent US9642889B2, “Macrocyclic inhibitors of Flaviviridae viruses” (Selcia Limited, priority 2012, dated 2017):
Where two headings read alike, the source gives them in different places.

Legend:
[1] = rcm bond
[2] = test system: Huh-7 HCV replicon cells (1b replicon); assay: anti-HCV activity in Huh-7 cell line harboring a HCV replicon (luciferase readout); format: cell-based; details: Hepatitis C virus; for EC50: Huh-7, 72 h
cyclophilin A = cyclophilin A (Homo sapiens, UniProt P62937); assay: Cyclophilin A TR-FRET competitive binding assay; details: competition with CsA-Cy5 for His-tagged CypA, two-hour incubation
Protocol: Cyclophilin A TR-FRET Competitive Binding Assay
Inhibitor potency was measured using a competitive binding assay with a time-resolved fluorescence resonance energy transfer (TR-FRET) readout. […] An IC50 value was calculated using a four-parameter logistic fit.

[3] = inhibition of viral replication, Huh-7 HCV replicon cells, 3 days, read-out: EC50
[4] = Huh-7, read-out: Replicon 1b % inhibition at 1 μM, 1b replicon, 1 μM compound

Sequence of cyclophilin A (P62937 whole entry, species assumed): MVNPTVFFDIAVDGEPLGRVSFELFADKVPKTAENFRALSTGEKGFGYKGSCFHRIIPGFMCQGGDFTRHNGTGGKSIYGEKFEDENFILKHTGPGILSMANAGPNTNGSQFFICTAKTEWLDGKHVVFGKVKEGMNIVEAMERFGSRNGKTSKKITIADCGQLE

| SMILES | EC50 [2, 3] [nM] | inhibition at 1 µM [2, 4] [%] | IC50 (cyclophilin A) [nM] | other results |
| --- | --- | --- | --- | --- |
| CC(C)[C@@H]1NCCCC=Cc2cc3cc(ccc3cn2)[C@@H](C)OC(=O)[C@@H]2CCCN(N2)C(=O)[C@H](C)NC1=O |  |  |  | ring closure, yield of all isomers ([1]; from C=CCCCN[C@H](C(=O)N[C@@H](C)C(=O)N1CCC[C@@H](C(=O)O[C@H](C)c2ccc3cnc(C=C)cc3c2)N1)C(C)C, Hoveyda-Grubbs 2nd generation catalyst, toluene, 2.97 mM, 110.0 °C, 1.25 h): 56% |
| CC(C)[C@@H]1NS(=O)(=O)CC=Cc2cc3cc(ccc3cn2)[C@@H](C)OC(=O)[C@@H]2CCCN(N2)C(=O)[C@H](C)NC1=O |  |  |  | ring closure, yield of all isomers ([1]; from C=CCS(=O)(=O)N[C@H](C(=O)N[C@@H](C)C(=O)N1CCC[C@@H](C(=O)O[C@H](C)c2ccc3cnc(C=C)cc3c2)N1)C(C)C, Hoveyda-Grubbs 2nd Generation Catalyst, toluene, 5.0 mM, 110.0 °C, 2.0 h): 13% |
| CC(C)[C@@H]1OC(=O)C(C)(C)CC=Cc2cc3cc(ccc3cn2)[C@@H](C)NC(=O)[C@@H]2CCCN(N2)C(=O)[C@H](C)NC1=O |  |  |  | ring closure, yield of all isomers ([1]; from C=CCC(C)(C)C(=O)O[C@H](C(=O)N[C@@H](C)C(=O)N1CCC[C@@H](C(=O)N[C@H](C)c2ccc3cnc(C=C)cc3c2)N1)C(C)C, Hoveyda-Grubbs 2nd generation catalyst, toluene, 3.08 mM, 110.0 °C, 3.0 h): 15% |
| CC(C)[C@@H]1OC(=O)CC=Cc2cc3cc(ccc3cn2)[C@@H](C)NC(=O)[C@@H]2CCCN(N2)C(=O)[C@H](C)NC1=O |  |  |  | ring closure, yield of all isomers ([1]; from C=CCC(=O)O[C@H](C(=O)N[C@@H](C)C(=O)N1CCC[C@@H](C(=O)N[C@H](C)c2ccc3cnc(C=C)cc3c2)N1)C(C)C, Hoveyda-Grubbs 2nd generation, toluene, 2.83 mM, 110.0 °C, 5.0 h): 1% |
| CC(C)[C@@H]1OCCCC=Cc2cc3cc(ccc3cn2)[C@@H](C)OC(=O)[C@@H]2CCCN(N2)C(=O)[C@H](C)NC1=O |  |  |  | ring closure, yield of all isomers ([1]; from C=CCCCO[C@H](C(=O)N[C@@H](C)C(=O)N1CCC[C@@H](C(=O)O[C@H](C)c2ccc3cnc(C=C)cc3c2)N1)C(C)C, Hoveyda-Grubbs 2nd Generation Catalyst, toluene, 3.0 mM, 100.0 °C, 0.58 h): 35% |
| CCC[C@@H]1CC=Cc2cc3cc(ccc3cn2)[C@@H](C)NC(=O)[C@@H]2CCCN(N2)C(=O)[C@H](C)NC(=O)[C@H](C(C)C)OC1=O |  |  |  | ring closure, yield of all isomers ([1]; from C=CC[C@@H](CCC)C(=O)O[C@H](C(=O)N[C@@H](C)C(=O)N1CCC[C@@H](C(=O)N[C@H](C)c2ccc3cnc(C=C)cc3c2)N1)C(C)C, Hoveyda-Grubbs 2nd generation, toluene, 3.02 mM, 110.0 °C, 3.5 h): 6% |
| CO[C@@H]1CCC=Cc2cccc(c2)[C@@H](C)NC(=O)[C@@H]2CCCN(N2)C(=O)[C@H](C)NC(=O)[C@H](C(C)C)OC(=O)[C@@H]1C |  |  |  | ring closure, yield of all isomers ([1]; from C=CCC[C@@H](OC)[C@@H](C)C(=O)O[C@H](C(=O)N[C@@H](C)C(=O)N1CCC[C@@H](C(=O)N[C@H](C)c2cccc(C=C)c2)N1)C(C)C, Hoveyda-Grubbs 2nd generation, 1,2-dichloroethane, 2.96 mM, 85.0 °C, 5.0 h): 32% |
| C[C@@H]1NC(=O)[C@H](C2CC2)OC(=O)C(C)(C)/C=C/c2ccc3ccc(nc3c2)[C@@H](C)NC(=O)[C@@H]2CCCN(N2)C1=O [Compound 78] | < 1000 | 99 | < 100 |  |
| C[C@@H]1NC(=O)[C@@H](C2CC2)OC(=O)C(C)(C)/C=C/c2ccc3ccc(nc3c2)[C@@H](C)NC(=O)[C@@H]2CCCN(N2)C1=O [Compound 79] | 1100 to 10000 | 3 | 1000 to 10000 |  |
| CC(C)C(=O)O[C@H]1CC[C@@]2(/C=C/c3ccc4ccc(nc4c3)[C@@H](C)NC(=O)[C@@H]3CCCN(N3)C(=O)[C@H](C)NC(=O)[C@H](C(C)C)OC2=O)CC1 [Compound 80] | < 1000 | 99 | < 100 |  |
| CC(C)C(=O)O[C@H]1CC[C@]2(/C=C/c3ccc4ccc(nc4c3)[C@@H](C)NC(=O)[C@@H]3CCCN(N3)C(=O)[C@H](C)NC(=O)[C@H](C(C)C)OC2=O)CC1 [Compound 81] | < 1000 | 100 | < 100 |  |
| CCCC(=O)O[C@H]1CC[C@]2(/C=C/c3ccc4ccc(nc4c3)[C@@H](C)NC(=O)[C@@H]3CCCN(N3)C(=O)[C@H](C)NC(=O)[C@H](C(C)C)OC2=O)CC1 [Compound 82] | < 1000 | 99 | < 100 |  |
| CON=C1CCC2(/C=C/c3ccc4ccc(nc4c3)[C@@H](C)NC(=O)[C@@H]3CCCN(N3)C(=O)[C@H](C)NC(=O)[C@H](C(C)C)OC2=O)CC1 (stereo partly shown) [Compound 83] | < 1000 | 100 | < 100 |  |
| CC(C)[C@@H]1OC(=O)C2(/C=C/c3ccc4ccc(nc4c3)[C@@H](C)NC(=O)[C@@H]3CCCN(N3)C(=O)[C@H](C)NC1=O)CCN(C(=O)OC(C)(C)C)CC2 [Compound 84] | 1100 to 10000 | 10 | 1000 to 10000 |  |
| CC(C)[C@@H]1OC(=O)C2(/C=C/c3ccc4ccc(nc4c3)[C@@H](C)NC(=O)[C@@H]3CCCN(N3)C(=O)[C@H](C)NC1=O)CCN(S(C)(=O)=O)CC2 [Compound 85] | < 1000 | 98 | < 100 |  |
| C[C@@H]1NC(=O)[C@H]([C@@H](C)OC(C)(C)C)OC(=O)C(C)(C)/C=C/c2ccc3ccc(nc3c2)[C@@H](C)NC(=O)[C@@H]2CCCN(N2)C1=O [Compound 86] | < 1000 | 93 | 101 to 1000 |  |
| C[C@@H]1NC(=O)[C@H]([C@@H](C)O)OC(=O)C(C)(C)/C=C/c2ccc3ccc(nc3c2)[C@@H](C)NC(=O)[C@@H]2CCCN(N2)C1=O [Compound 87] | < 1000 | 61 | < 100 |  |

| SMILES | EC50 [2, 3] [nM] | inhibition at 1 µM [2, 4] [%] | IC50 (cyclophilin A) [nM] | other results |
| --- | --- | --- | --- | --- |
| CC(C)[C@@H]1OC(=O)C2(/C=C/c3ccc4ccc(nc4c3)[C@@H](C)NC(=O)[C@@H]3CCCN(N3)C(=O)[C@H](C)NC1=O)CCC(C)(O)CC2 (stereo partly shown) [Compound 89] | < 1000 | 82 | < 100 |  |
| CC(C)[C@@H]1OC(=O)[C@@]2(/C=C/c3ccc4ccc(nc4c3)[C@@H](C)NC(=O)[C@@H]3CCCN(N3)C(=O)[C@H](C)NC1=O)CCOC(C)(C)C2 [Compound 90] | < 1000 | 99 | < 100 |  |
| CC(C)[C@@H]1OC(=O)[C@]2(/C=C/c3ccc4ccc(nc4c3)[C@@H](C)NC(=O)[C@@H]3CCCN(N3)C(=O)[C@H](C)NC1=O)CCOC(C)(C)C2 [Compound 91] | < 1000 | 100 | < 100 |  |
| C[C@@H]1NC(=O)[C@H](C2CC2)OC(=O)C2(/C=C/c3ccc4ccc(nc4c3)[C@@H](C)NC(=O)[C@@H]3CCCN(N3)C1=O)COCCOC2 [Compound 93] | < 1000 | 98 | < 100 |  |
| C[C@@H]1NC(=O)[C@H](C2COC2)OC(=O)C(C)(C)/C=C/c2ccc3ccc(nc3c2)[C@@H](C)NC(=O)[C@@H]2CCCN(N2)C1=O [Compound 95] | < 1000 | 88 | < 100 |  |
| CCN1CCOC2(/C=C/c3ccc4ccc(nc4c3)[C@@H](C)NC(=O)[C@@H]3CCCN(N3)C(=O)[C@H](C)NC(=O)[C@H](C(C)C)OC2=O)C1 (stereo partly shown) [Compound 96] |  |  | < 100 | EC50 [2]: < 1000 nM; inhibition at 1 µM ([2]; Huh-7, read-out: Replicon 1b % inhibition at 1 μM): 91% |
| CC(C)[C@@H]1OC(=O)C2(/C=C/c3ccc4ccc(nc4c3)[C@@H](C)NC(=O)[C@@H]3CCCN(N3)C(=O)[C@H](C)NC1=O)CN(S(C)(=O)=O)CCO2 (stereo partly shown) [Compound 97] | < 1000 | 96 | < 100 |  |
| CC(C)[C@@H]1OC(=O)C2(/C=C/c3ccc4ccc(nc4c3)[C@@H](C)NC(=O)[C@@H]3CCCN(N3)C(=O)[C@H](C)NC1=O)COC(=O)OC2 [Compound 98] | < 1000 | 90 | < 100 |  |
| CC(C)[C@@H]1OC(=O)C(CF)(CF)/C=C/c2ccc3ccc(nc3c2)[C@@H](C)NC(=O)[C@@H]2CCCN(N2)C(=O)[C@H](C)NC1=O [Compound 99] | < 1000 | 100 | < 100 |  |
| C[C@@H]1NC(=O)[C@H](C2CC2)OC(=O)C2(/C=C/c3ccc4ccc(nc4c3)[C@@H](C)NC(=O)[C@@H]3CCCN(N3)C1=O)CCC(O)C2 (stereo partly shown) [Compound 102] | 1100 to 10000 | 13 | < 100 |  |
| CC(C)[C@@H]1OC(=O)C2(/C=C/c3ccc4ccc(nc4c3)[C@@H](C)NC(=O)[C@@H]3CCCN(N3)C(=O)[C@H](C)NC1=O)COC(CF)(CF)OC2 [Compound 107] | < 1000 | 100 | < 100 |  |
| CCCC(=O)O[C@H]1CC[C@@]2(/C=C/c3ccc4ccc(nc4c3)[C@@H](C)NC(=O)[C@@H]3CCCN(N3)C(=O)[C@H](C)NC(=O)[C@H](C(C)C)OC2=O)CC1 [Compound 108] | < 1000 | 99 | < 100 |  |
| CCC(=O)O[C@H]1CC[C@@]2(/C=C/c3ccc4ccc(nc4c3)[C@@H](C)NC(=O)[C@@H]3CCCN(N3)C(=O)[C@H](C)NC(=O)[C@H](C(C)C)OC2=O)CC1 [Compound 109] | < 1000 | 99 | < 100 |  |
| CC(=O)O[C@H]1CC[C@@]2(/C=C/c3ccc4ccc(nc4c3)[C@@H](C)NC(=O)[C@@H]3CCCN(N3)C(=O)[C@H](C)NC(=O)[C@H](C(C)C)OC2=O)CC1 [Compound 110] | < 1000 | 100 | < 100 |  |
| CCC(=O)O[C@H]1CC[C@]2(/C=C/c3ccc4ccc(nc4c3)[C@@H](C)NC(=O)[C@@H]3CCCN(N3)C(=O)[C@H](C)NC(=O)[C@H](C(C)C)OC2=O)CC1 [Compound 111] | < 1000 | 99 | < 100 |  |
| CC(=O)O[C@H]1CC[C@]2(/C=C/c3ccc4ccc(nc4c3)[C@@H](C)NC(=O)[C@@H]3CCCN(N3)C(=O)[C@H](C)NC(=O)[C@H](C(C)C)OC2=O)CC1 [Compound 112] | < 1000 | 100 | < 100 |  |
